Measured values: patent US20260092074A1, “Annelated Pyridines as Steroidogenesis Inhibitors, Preparation Method and Use Thereof” (Guangzhou Vinnocent Pharmaceutical Limited, priority 2022, published 2026)

Columns and labels:
[1] = target: T1, human CYP11B2 (Homo sapiens, UniProt P19099); assay: Inhibition of hCYP11B2 in transfected V79 cells; assay type: cell-based; conditions: hamster V79 cells expressing human CYP11B2; substrate 11-deoxycorticosterone 200 nM
T1 construct: expressed in transfected cells
T1 sequence (P19099 25-503): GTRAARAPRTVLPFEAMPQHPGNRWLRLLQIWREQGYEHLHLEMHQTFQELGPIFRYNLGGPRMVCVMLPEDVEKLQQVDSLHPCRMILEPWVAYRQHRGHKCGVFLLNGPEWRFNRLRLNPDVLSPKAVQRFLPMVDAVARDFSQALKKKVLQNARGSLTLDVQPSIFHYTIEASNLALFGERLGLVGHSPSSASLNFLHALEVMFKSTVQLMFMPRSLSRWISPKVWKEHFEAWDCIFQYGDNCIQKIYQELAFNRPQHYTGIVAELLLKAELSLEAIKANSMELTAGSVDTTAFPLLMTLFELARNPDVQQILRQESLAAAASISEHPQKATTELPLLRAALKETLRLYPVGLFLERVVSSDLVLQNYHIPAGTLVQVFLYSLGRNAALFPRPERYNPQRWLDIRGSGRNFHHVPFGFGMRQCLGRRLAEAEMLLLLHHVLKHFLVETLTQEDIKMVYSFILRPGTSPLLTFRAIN
Method in brief: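 The substrate (200 nM, 30 min) was added after a 2 hour compound pre-incubation in lentivirus-transduced V79 cells stably expressing human CYP11B2 plus rat NADPH-P450 reductase.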

[2] = target: T2, human CYP11B1 (Homo sapiens, UniProt P15538); assay: Inhibition of hCYP11B1 in transfected V79 cells; assay type: cell-based; conditions: hamster V79 cells expressing human CYP11B1; substrate 11-deoxycortisol 200 nM
T2 construct: expressed in transfected cells
T2 sequence (P15538 25-503): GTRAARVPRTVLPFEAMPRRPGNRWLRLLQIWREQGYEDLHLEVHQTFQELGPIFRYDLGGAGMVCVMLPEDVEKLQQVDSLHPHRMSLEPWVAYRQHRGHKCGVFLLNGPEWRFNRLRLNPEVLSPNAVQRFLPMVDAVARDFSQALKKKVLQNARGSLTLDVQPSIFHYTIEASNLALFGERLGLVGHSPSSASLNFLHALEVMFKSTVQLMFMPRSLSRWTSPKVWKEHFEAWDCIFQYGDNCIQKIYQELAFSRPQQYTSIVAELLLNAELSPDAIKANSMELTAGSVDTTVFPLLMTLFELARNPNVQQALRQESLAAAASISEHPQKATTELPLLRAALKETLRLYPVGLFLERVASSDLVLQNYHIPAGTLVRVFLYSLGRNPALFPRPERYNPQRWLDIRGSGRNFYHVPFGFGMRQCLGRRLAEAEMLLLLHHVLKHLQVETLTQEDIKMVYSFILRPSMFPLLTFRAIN
Method in brief: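 Reactions started with 200 nM 11-deoxycortisol, ran for 30 min and were stopped with ethyl acetate, after a 2 h compound preincubation. The host was stably transfected V79 hamster cells carrying human CYP11B1 plus rat P450 reductase. Percent inhibition, from LC-MS/MS or HPLC (260 nm) quantitation of substrate and product, gave the IC50.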

Row | Compound | IC50 [1] [µM] | IC50 [2] [µM]
1 | N#Cc1ccc(-c2cncc3c2OCCN3S(=O)(=O)c2cccc3ccccc23)cc1 [O17, 4-(4-(Naphthalen-1-ylsulfonyl)-3,4-dihydro-2H-pyrido[4,3-b][1,4]oxazin-8-yl)benzonitrile] | 0.00039 | 0.0065
2 | O=C(c1ccccc1F)N1CCc2c(-c3ccc(Cl)cc3)cncc21 [C54, (4-(4-Chlorophenyl)-2,3-dihydro-1H-pyrrolo[2,3-c]pyridin-1-yl)(2-fluorophenyl)methanone] | 0.045 | 0.895
3 | N#Cc1ccc(S(=O)(=O)N2CCSc3c(-c4ccc5nc[nH]c5c4)cncc32)cc1 [S49, 4-((8-(1H-Benzo[d]imidazol-6-yl)-2,3-dihydro-4H-pyrido[4,3-b][1,4]thiazin-4-yl)sulfonyl)benzonitrile] | 0.027 | 0.007
4 | N#Cc1ccc(-c2cncc3c2CCN3C(=O)CCl)cc1 [C43, 4-(1-(2-Chloroacetyl)-2,3-dihydro-1H-pyrrolo[2,3-c]pyridin-4-yl)benzonitrile] | 0.099 | 0.897
5 | O=C(c1ccc(F)cc1)n1ccc2c(-c3ccc4ncsc4c3)cncc21 [E36, (4-(Benzo[d]thiazol-6-yl)-1H-pyrrolo[2,3-c]pyridin-1-yl)(4-fluorophenyl)methanone] | 0.029 | 1.98
6 | COc1ccc(S(=O)(=O)N2CCSc3c(-c4cccc(F)c4)cncc32)cc1 [S31, 8-(3-Fluorophenyl)-4-((4-methoxyphenyl)sulfonyl)-3,4-dihydro-2H-pyrido[4,3-b][1,4]thia zine] | 0.0059 | 0.136
7 | O=C(c1ccccc1F)N1CCc2c(-c3cc4ccccc4o3)cncc21 [C60, (4-(Benzofuran-2-yl)-2,3-dihydro-1H-pyrrolo[2,3-c]pyridin-1-yl)(2-fluorophenyl)methanone] | 0.152 | > 10
8 | N#Cc1ccc(-c2cncc3c2CCN3C(=O)c2ccc(CBr)cc2)cc1 [C49, 4-(1-(4-(Bromomethyl)benzoyl)-2,3-dihydro-1H-pyrrolo[2,3-c]pyridin-4-yl)benzonitrile] | 0.025 | 0.971
9 | N#Cc1ccc(-c2cncc3c2OCCN3S(=O)(=O)C2CN(C(=O)c3cccc(C#N)c3)C2)cc1 [O110, 4-(4-((1-(3-Cyanobenzoyl)azetidin-3-yl)sulfonyl)-3,4-dihydro-2H-pyrido[4,3-b][1,4]oxazin-8-yl)benzonitrile] | 0.0193 | 0.484
10 | N#Cc1ccc(-c2cncc3c2CCN3C(=O)Cc2ccc(F)cc2)cc1 [C69, 4-(1-(2-(4-Fluorophenyl)acetyl)-2,3-dihydro-1H-pyrrolo[2,3-c]pyridin-4-yl)benzonitrile] | 0.0024 | 0.134
11 | N#Cc1ccc(-c2cncc3c2SCCN3S(=O)(=O)c2cccc(Cl)c2)cc1 [S14, 4-(4-((3-Chlorophenyl)sulfonyl)-3,4-dihydro-2H-pyrido[4,3-b][1,4]thiazin-8-yl)benzonitrile] | 0.00025 | 0.0048
12 | COc1ccc(CC(=O)N2CCc3c(-c4ccc(C#N)cc4)cncc32)cc1 [C76, 4-(1-(2-(4-Methoxyphenyl)acetyl)-2,3-dihydro-1H-pyrrolo[2,3-c]pyridin-4-yl)benzonitrile] | 0.009 | 0.062
13 | COc1cccc(C(=O)N2CCSc3c(-c4ccc(C#N)cc4)cncc32)c1 [S96, 4-(4-(3-Methoxybenzoyl)-3,4-dihydro-2H-pyrido[4,3-b][1,4]thiazin-8-yl)benzonitrile] | 0.011 | 0.643
14 | N#Cc1ccc(-c2cncc3c2ccn3C(=O)c2c(F)c(F)c(F)c(F)c2F)cc1 [E19, 4-(1-(Perfluorobenzoyl)-1H-pyrrolo[2,3-c]pyridin-4-yl)benzonitrile] | 0.0025 | 0.0029
15 | CC(=O)N1CCc2cc(S(=O)(=O)N3CCSc4c(-c5cc6cc(Cl)ccc6o5)cncc43)ccc21 [S58, 1-(5-((8-(5-Chlorobenzofuran-2-yl)-2,3-dihydro-4H-pyrido[4,3-b][1,4]thiazin-4-yl)sulfonyl)indolin-1-yl)ethan-1-one] | 0.002 | 0.027
16 | O=S(=O)(c1ccc(Cl)s1)N1CCSc2c(-c3cc4cc(Cl)ccc4o3)cncc21 [S60, 8-(5-Chlorobenzofuran-2-yl)-4-((5-chlorothiophen-2-yl)sulfonyl)-3,4-dihydro-2H-pyrido-[4,3-b][1,4]thiazine] | 0.0007 | 0.054
17 | N#Cc1ccc(-c2cncc3c2ccn3S(=O)(=O)c2cccs2)cc1 [E17, 4-(1-(Thiophen-2-ylsulfonyl)-1H-pyrrolo[2,3-c]pyridin-4-yl)benzonitrile] | 0.0001 | 0.0007
18 | CN1CCN(S(=O)(=O)c2ccc(C#N)cc2)c2cncc(-c3ccc(C#N)cc3)c21 [N4, 4-((8-(4-Cyanophenyl)-1-methyl-2,3-dihydropyrido[3,4-b]pyrazin-4 (1H)-yl)sulfonyl)benzonitrile] | 0.0006 | 0.0052
19 | N#CC1CN(S(=O)(=O)N2CCSc3c(-c4cc5cc(Cl)ccc5o4)cncc32)C1 [S101, 1-((8-(5-Chlorobenzofuran-2-yl)-2,3-dihydro-4H-pyrido[4,3-b][1,4]thiazin-4-yl)sulfonyl) azetidine-3-carbonitrile] | 0.025 | 2.67
20 | O=C(c1ccc(F)cc1)n1ccc2c(-c3cc4ccccc4[nH]3)cncc21 [E34, (4-(1H-Indol-2-yl)-1H-pyrrolo[2,3-c]pyridin-1-yl)(4-fluorophenyl)methanone] | 0.005 | 0.375
21 | Cc1cccc(CC(=O)N2CCOc3c(-c4ccc(C#N)cc4)cncc32)c1 [O43, 4-(4-(2-(m-Tolyl)acetyl)-3,4-dihydro-2H-pyrido[4,3-b][1,4]oxazin-8-yl)benzonitrile] | 0.0047 | 0.125
22 | CC(=O)Nc1nc(C)c(S(=O)(=O)N2CCSc3c(-c4cc5cc(Cl)ccc5o4)cncc32)s1 [S57, N-(5-((8-(5-Chlorobenzofuran-2-yl)-2,3-dihydro-4H-pyrido[4,3-b][1,4]thiazin-4-yl)sulfonyl)-4-methylthiazol-2-yl)acetamide] | 0.0039 | 0.066
23 | O=S(=O)(C1CNC1)N1CCSc2c(-c3cc4cc(Cl)ccc4o3)cncc21 [S62, 4-(Azetidin-3-ylsulfonyl)-8-(5-chlorobenzofuran-2-yl)-3,4-dihydro-2H-pyrido[4,3-b][1,4]thiazine] | 0.0072 | 0.516
24 | N#Cc1ccc(-c2cncc3c2CCN3C(=O)c2cccs2)cc1 [C46, 4-(1-(Thiophene-2-carbonyl)-2,3-dihydro-1H-pyrrolo[2,3-c]pyridin-4-yl)benzonitrile] | 0.0054 | 0.274
25 | COc1cccc(S(=O)(=O)N2CC(S(=O)(=O)N3CCSc4c(-c5ccc(C#N)cc5)cncc43)C2)c1 [S79, 4-(4-((1-((3-Methoxyphenyl)sulfonyl)azetidin-3-yl)sulfonyl)-3,4-dihydro-2H-pyrido[4,3-b][1,4]thiazin-8-yl)benzonitrile] | 0.0008 | 0.016
26 | CN1CCNc2cncc(-c3ccc(C#N)cc3)c21 [N3, 4-(1-Methyl-1,2,3,4-tetrahydropyrido[3,4-b]pyrazin-8-yl)benzonitrile] | 0.311 | 0.394
27 | COc1cccc(CN2CC(C(=O)N3CCOc4c(-c5ccc(C#N)cc5)cncc43)C2)c1 [O82, 4-(4-(1-(3-Methoxybenzyl)azetidine-3-carbonyl)-3,4-dihydro-2H-pyrido[4,3-b][1,4]oxazin-8-yl)benzonitrile] | 0.0014 | 0.069
28 | N#Cc1ccc(-c2cncc3c2CCN3S(=O)(=O)c2ccc(Cl)cc2)cc1 [C13, 4-(1-((4-Chlorophenyl)sulfonyl)-2,3-dihydro-1H-pyrrolo[2,3-c]pyridin-4-yl)benzonitrile] | 0.0006 | 0.0002
29 | N#Cc1ccc(-c2cncc3c2SCCN3S(=O)(=O)c2cccc(C(F)(F)F)c2)cc1 [S16, 4-(4-((3-(Trifluoromethyl)phenyl)sulfonyl)-3,4-dihydro-2H-pyrido[4,3-b][1,4]thiazin-8-yl) benzonitrile] | 0.00105 | 0.012
